Measurements reported in patent publication US12285395B2, “Pharmaceutical composition for preventing or treating allodynia caused by anticancer agents” (UNIVERSITY-INDUSTRY COOPERATION GROUP OF KYUNG HEE …, priority 2018, dated 2025).

What was measured:
[1] = system: oxaliplatin-induced mechanical allodynia; assay: von Frey filament test (up-down method), oxaliplatin-induced mechanical allodynia, intraperitoneal administration; assay type: in vivo, Sprague Dawley (SD) rats
Experimental: (§1) Cinnamic acid (trans-cinnamic acid, Wako Pure Chemical Industries, Osaka, Japan) and cinnamaldehyde (Wako Pure Chemical Industries, Osaka, Japan) were dissolved in 10% dimethyl sulfoxide (DMSO, Sigma) (adjusted to pH 7 with 2 M HCl and 5 M NaOH) and 1% Tween 20 (Sigma), respectively. The final volume of 10% DMSO and 1% Tween 20 used in the experiment was […] rat. Cinnamic acid and cinnamaldehyde (10 mg/kg, 20 mg/kg, and 40 mg/kg) (i.p.) at different concentrations were administered to rats with cold allodynia and mechanical allodynia.
(§2) Seven-week-old male Sprague Dawley (SD) rats (180 g to 210 g, 95 rats total, Young Bio, Gyeonggi, Korea) were fed freely with feed and water in cages. The room temperature was maintained at 23±2° C. and a 12 h/12 h contrast cycle was maintained. All procedures described in the present disclosure were approved by the Animal Care and Use Committee of Kyunghee University (KHUASP[SE]-18-153) and followed the guidelines of the International Pain Research Association.
(§3) In order to measure cold allodynia and mechanical allodynia, according to a previous method (Flatters, S J; Bennett, G J Ethosuximide reverses paclitaxel- and vincristine-induced painful peripheral neuropathy. Pain 2004, 109, 150-161), an acetone drop test and a von Frey filament test (up-down method, Linton Instrumentation, Norfolk, UK) were performed, respectively. The rats were trained for one week before the start of the experiment to adapt to the touch and the experimental procedure. The rats were stabilized for 30 min before testing in a clear plastic box (20 cm×20 cm×14 cm) with a wire mesh bottom, while not recognizing the injection of oxaliplatin and other drugs.
(§4) For the mechanical allodynia test, paw withdrawal thresholds were measured in the right hind paw using a von Frey filament. Dixon's up-down method and Chaplan's calculation method were used, and a withdrawal threshold of 15 g was measured as a cut-off. In order to confirm the effects of cinnamaldehyde and cinnamic acid at different concentrations over time, the behavioral experiment was performed before injection of cinnamic acid and cinnamaldehyde (time point of 0 min) and at time points of 30 min, 60 min, and 120 min after injection.
(§5) Oxaliplatin (Wako Pure Chemical Industries, Osaka, Japan) was dissolved in a 5% glucose solution at a concentration of 2 mg/mL and injected intraperitoneally at a dose of 6 mg/kg. The same volume of 5% glucose solution (i.p.) was administered to a control.
(§6) All data are expressed as mean±S.E.M. (Standard error of the mean). The data in FIG. 4 was analyzed by a paired t-test (FIGS. 4A and 4B) or an unpaired t-test (FIG. 4C). The data in FIGS. 5 and 6 were expressed as mean±S.E.M. and analyzed by a Bonferroni post-test after one-way ANOVA to evaluate a statistical difference between groups. The data in FIG. 7A were analyzed using Dunnett's multiple comparisons test after two-way ANOVA. The 95% reliability was considered to be statistically significant.

[2] = system: oxaliplatin-induced cold allodynia; assay: Acetone drop test, oxaliplatin-induced cold allodynia, intraperitoneal administration; assay type: in vivo, Sprague Dawley (SD) rats; settings: for effect on oxaliplatin-induced cold allodynia: all three doses 10, 20 and 40 mg/kg i.p., 30, 60, 120 min after injection (FIG. 5A, FIG. 6)
Experimental: as §1, §2, §3
Acetone was dripped 5 times on the right hind paw, and the total frequency of licking and shaking of the soles was measured as an average per time.
as §4, §5, §6

spinal WDR neurons = assay: In vivo extracellular recording of spinal WDR neurons after oxaliplatin; design: species or system Sprague Dawley (SD) rats
Experimental: as §2
Oxaliplatin (Wako Pure Chemical Industries, Osaka, Japan) was dissolved in a 5% glucose solution at a concentration of 2 mg/mL and injected intraperitoneally at a dose of 6 mg/kg. The same volume of 5% glucose solution (i.p.) was administered to a control. […]
as §6, with “The 95% reliability was considered to be statistically significant.” left out

[3] = system: cold allodynia induced by paclitaxel; assay: Cold allodynia (acetone application), paclitaxel animal model, oral cinnamic acid; assay type: in vivo, c57/bl6 mice
Experimental: Six-week-old mice (c57/bl6 mice) were prepared as an experimental animal. Paclitaxel (Sigma-Aldrich) dissolved at a concentration of 6 mg/mL in a 1:1 solution of Cremophor EL and ethanol was diluted to a concentration of 2 mg/mL and intraperitoneally injected 4 times at 2 mg/kg. The dosage was administered every other day on days 0, 2, 4, and 6. Significant pain was observed from about 10 days after the first dosage. The reaction that occurred by applying about 20 μL of acetone to the soles of both rear paws of the experimental animal was observed and recorded for about 15 s. Behaviors that are criteria for recording are an avoidance reaction, a behavior of shaking the soles of the paw, and a behavior of licking the soles of the paw. The evaluation was repeated a total of three times, and the average of the number of recorded behaviors was confirmed. As a pre-behavioral experiment, 50 mg/kg and 100 mg/kg of cinnamic acid was orally administered to experimental animals induced with allodynia, and the effects after 1 h and 2 h were confirmed.

[4] = system: mechanical allodynia induced by oxaliplatin; assay: Mechanical allodynia (von Frey filament 0.4 g), oxaliplatin animal model, oral cinnamic acid; assay type: in vivo, c57/bl6 mice; settings: mice, 10 mg/kg oral (FIG. 1)
Experimental: (§7) Six-week-old mice (c57/bl6 mice) were prepared as an experimental animal.
(§8) Oxaliplatin (Sigma-Aldrich) dissolved in a 5% glucose solution at a concentration of 2 mg/mL was singly administered intraperitoneally to the experimental animal in an amount of 6 mg/kg. Significant pain was observed from about 3 days after intraperitoneal administration.
The number of reactions was recorded by stimulating the soles of both hind paws of the experimental animal 10 times using a von Frey filament at a pressure of 0.4 g.
The behaviors that are criteria for recording are an avoidance reaction and a behavior of licking the soles of the paw. The recording for both paws was averaged and confirmed.
(§9) Experimental animals induced with allodynia were selected through a pre-behavioral experiment, and the effects were confirmed at 2 h after oral administration of 10 mg/kg of cinnamic acid.

[5] = system: mechanical allodynia induced by paclitaxel; assay: Mechanical allodynia (von Frey filament 0.4 g), paclitaxel animal model, oral cinnamic acid; assay type: in vivo, c57/bl6 mice; settings: mice
Experimental: Six-week-old mice (c57/bl6 mice) were prepared as an experimental animal. Paclitaxel (Sigma-Aldrich) dissolved at a concentration of 6 mg/mL in a 1:1 solution of Cremophor EL and ethanol was diluted to a concentration of 2 mg/mL and intraperitoneally injected 4 times at 2 mg/kg. The dosage was administered every other day on days 0, 2, 4, and 6. Significant pain was observed from about 10 days after the first dosage. The number of reactions was recorded by stimulating the soles of both hind paws of the experimental animal 10 times using a von Frey filament at a pressure of 0.4 g. The behaviors that are criteria for recording are an avoidance reaction and a behavior of licking the soles of the paw. The recording for both paws was averaged and confirmed. As a pre-behavioral experiment, 50 mg/kg and 100 mg/kg of cinnamic acid was orally administered to experimental animals induced with allodynia, and the effects after 1 h and 2 h were confirmed.

[6] = system: cold allodynia induced by oxaliplatin; assay: Cold allodynia (acetone application), oxaliplatin animal model, oral cinnamic acid; assay type: in vivo, c57/bl6 mice
Experimental: as §7, §8
The reaction that occurred by applying about 20 μL of acetone to the soles of both rear paws of the experimental animal was observed and recorded for about 15 s.
Behaviors that are criteria for recording are an avoidance reaction, a behavior of shaking the soles of the paw, and a behavior of licking the soles of the paw. The evaluation was repeated a total of three times, and the average of the number of recorded behaviors was confirmed.
as §9

[7] = system: cold allodynia induced by vincristine; assay: Cold allodynia (acetone application), vincristine animal model, oral cinnamic acid; assay type: in vivo, c57/bl6 mice
Experimental: Six-week-old mice (c57/bl6 mice) were prepared as an experimental animal. Vincristine at a concentration of 1 mg/mL was injected intraperitoneally for 7 consecutive days at 0.1 mg/kg. Significant pain was observed from about 10 days after the first injection. The reaction that occurred by applying about 20 μL of acetone to the soles of both rear paws of the experimental animal was observed and recorded for about 15 s. Behaviors that are criteria for recording are an avoidance reaction, a behavior of shaking the soles of the paw, and a behavior of licking the soles of the paw. The evaluation was repeated a total of three times, and the average of the number of recorded behaviors was confirmed. Experimental animals induced with allodynia were selected through a pre-behavioral experiment and orally administered with 50 mg/kg and 100 mg/kg of cinnamic acid, and the effects after 1 h and 2 h were confirmed.

[8] = system: mechanical allodynia induced by vincristine; assay: Mechanical allodynia (von Frey filament 0.4 g), vincristine animal model, oral cinnamic acid; assay type: in vivo, c57/bl6 mice; settings: mice
Experimental: Six-week-old mice (c57/bl6 mice) were prepared as an experimental animal. Vincristine at a concentration of 1 mg/mL was injected intraperitoneally for 7 consecutive days at 0.1 mg/kg. Significant pain was observed from about 10 days after the first injection. The number of reactions was recorded by stimulating the soles of both hind paws of the experimental animal 10 times using a von Frey filament at a pressure of 0.4 g. The behaviors that are criteria for recording are an avoidance reaction and a behavior of licking the soles of the paw. The recording for both paws was averaged and confirmed. Experimental animals induced with allodynia were selected through a pre-behavioral experiment and orally administered with 50 mg/kg and 100 mg/kg of cinnamic acid, and the effects after 1 h and 2 h were confirmed.

[9] = 10, 20 and 40 mg/kg i.p., 30, 60, 120 min after injection (FIG. 5B, FIG. 6)

O=CC=Cc1ccccc1 [cinnamaldehyde, reference compound]
effect on oxaliplatin-induced mechanical allodynia [1, 9]: did not have relief effects | effect on oxaliplatin-induced cold allodynia [2]: did not have relief effects

O=C1[O][Pt]2([NH][C@@H]3CCCC[C@H]3[NH]2)[O]C1=O [oxaliplatin, reference compound]
number of spike responses of WDR neurons to mechanical (brush, press, pinch) and cold (acetone drop) stimulations (spinal WDR neurons; after oxaliplatin 6 mg/kg i.p. vs 5% glucose control (FIGS. 4C to 4F)): significantly increased | induction of mechanical allodynia (von Frey) ([1]; oxaliplatin 6 mg/kg i.p. single injection, day 4, p<0.001 vs before (FIG. 4B)): significantly induced | induction of cold allodynia (acetone drop) ([2]; oxaliplatin 6 mg/kg i.p. single injection, day 4, p<0.001 vs before (FIG. 4A)): significantly induced

O=C(O)/C=C/c1ccccc1 [cinnamic acid]
time after administration up to which pain relief effect on cold allodynia was shown ([3]; high dose 100 mg/kg p.o.): up to 1 h | pain relief effect on cold allodynia ([3]; mice, 50 mg/kg oral (FIG. 2)): no significant pain relief effect | pain relief effect on cold allodynia compared to control ([3]; mice, 100 mg/kg oral, after 1 h (FIG. 2)): significant pain relief effect | increased activity of WDR neurons after oxaliplatin injection (brush, press, pinch, acetone drop stimulations) (spinal WDR neurons; 20 mg/kg i.p., day 4 after oxaliplatin, vs 10% DMSO control (FIGS. 7A to 7D)): significantly decreased | pain relief effect on mechanical allodynia compared to control (vehicle) [4]: no significant pain relief effect | pain relief effect on mechanical allodynia ([5]; 50 mg/kg oral (FIG. 2)): no significant pain relief effect | pain relief effect on mechanical allodynia compared to control ([5]; 100 mg/kg oral (FIG. 2)): no significant pain relief effect | effect on oxaliplatin-induced mechanical allodynia ([1]; 10 mg/kg i.p., 60 min after injection (FIG. 5B)): remarkable effect | anti-allodynic effect on mechanical allodynia ([1]; 20 mg/kg i.p., all time points, compared with 10 and 40 mg/kg (FIG. 5B)): strongest anti-allodynic effect among the three doses | effect on oxaliplatin-induced mechanical allodynia [1, 9]: significantly alleviated | time after administration up to which pain relief effect on cold allodynia was shown ([6]; low dose 10 mg/kg p.o.): up to 2 h | pain relief effect on cold allodynia compared to control (vehicle) ([6]; mice, 10 mg/kg oral, 2 h after administration (FIG. 1)): significant pain relief effect | time point at which the effect on cold allodynia disappeared ([2]; 10 mg/kg i.p. (FIG. 5A)): 120 min | pain relief effect on cold allodynia of 20 mg/kg relative to 40 mg/kg ([2]; 20 mg/kg i.p. vs 40 mg/kg i.p. (control vs. 20 mg/kg p<0.001, 40 mg/kg p<0.05) (FIG. 5A)): slightly stronger | effect on oxaliplatin-induced cold allodynia [2]: had effects on cold allodynia | optimal dose for alleviating cold allodynia and mechanical allodynia caused by oxaliplatin ([2]; intraperitoneal administration, doses tested 10, 20, 40 mg/kg): 20 mg/kg | time after administration up to which pain relief effect on cold allodynia was shown ([7]; high dose 100 mg/kg p.o.): up to 1 h | pain relief effect on cold allodynia ([7]; mice, 50 mg/kg oral (FIG. 3)): no significant pain relief effect | pain relief effect on cold allodynia compared to control ([7]; mice, 100 mg/kg oral, after 1 h (FIG. 3)): significant pain relief effect | pain relief effect on mechanical allodynia ([8]; 50 mg/kg oral (FIG. 3)): no significant pain relief effect | pain relief effect on mechanical allodynia compared to control ([8]; 100 mg/kg oral (FIG. 3)): no significant pain relief effect
